Assay results taken from article PMC11002875, “Linking triphenylphosphonium cation to a bicyclic hydroquinone improves their antiplatelet effect via the regulation of mitochondrial function” (Redox Biology, 2024).
Where two headings read alike, the source gives them in different places.

Legend:
platelets = assay: Oxygen consumption and extracellular acidification rate (Seahorse XFe24); assay type: cell-based, Human
Method: (§1) Human platelet purification. The blood sample was obtained from voluntary donors (10 days without antiplatelet medication) who agreed to participate after signing informed consent (Scientific Ethics Committee of the University of Talca N° 04–2022). Briefly, blood anticoagulated with acid-citrate-dextrose (ACD) was obtained in a 4:1 v/v ratio. The sample was centrifuged for 12 min at 250 g to obtain platelet-rich plasma (PRP). Subsequently, the PRP was centrifuged for 8 min at 900 g to obtain the platelet pellet. The plasma supernatant was removed, and the platelets were resuspended in Tyrodes buffer without calcium plus ACD in a ratio of 5:1 v/v. The platelets were centrifuged once more for 8 min at 900 g and the pellet was resuspended in Tyrodes buffer without calcium. Finally, the platelets were counted (Mindray BC-3000 Plus hematology counter, Japan), adjusted to the desired concentration, and used within 3 h.
Oxygen consumption and extracellular acidification rate. Oxygen consumption rate (OCR) and extracellular acidification rate (ECAR) were measured with a Seahorse XFe24 extracellular flux analyzer (Agilent, Santa Clara, CA, USA). Briefly, 100 μL of platelets washed in modified Tyrode-HEPES buffer were deposited (20–25 × 10^6 cells/well) and then centrifuged at 300 g for 10 min. Platelets were incubated with NP4 10 μM for 5 min, and then Tyrode's-HEPES buffer was removed and Seahorse medium (8.3 g/L DMEM, 1.85 g/L NaCl, 5 mM glucose, 1 mM pyruvate, 2 mM glutamine, 5 mM HEPES, pH 7.4) was added to a final volume of 600 μL [70]. OCR was measured before and after the sequential addition of 3 μg/mL collagen, 2.5 μM oligomycin, 1.4 μM FCCP, and 2 μM/2 μM antimycin A/rotenone. Non-mitochondrial OCR was subtracted from all measurements. Respiratory parameters obtained with Mito Stress Test (Supplementary Table 1) were calculated as follows: Baseline (baseline OCR), collagen (OCR after collagen addition), activation (collagen-basal), ATP-independent or proton leak (OCR resistant to oligomycin addition), ATP-linked respiration (basal-proton leak), maximum (OCR obtained after addition of FCCP), and spare (maximal-basal), coupling efficiency (OCR Basal – OCR ATP-indep)/OCR Basal). Respiratory parameters were calculated according to Refs. [66, 70, 73].

[1] = system: complex I from Y. lipolytica mitochondrial membranes reconstituted into proteoliposomes; assay: Proton pumping and activity of reconstituted complex I (ACMA quench in proteoliposomes); assay type: biochemical
Method: Proton pumping and activity of reconstituted complex I. Purification of complex I from Y. lipolytica mitochondrial membranes and reconstitution of complex I into Proteoliposomes was performed as previously described. Briefly, complex I was reconstituted in proteoliposomes (Cxl), and then ACMA (9-Amino-6-Chloro-2-Methoxyacridine) was added to quantify the proton pumping activity. Fluorescence changes were monitored at 25 °C in a Fluorolog-3 spectrofluorometer (Horiba Scientific). Settings: λex = 430 nm, λem = 475, slit 5 nm, time increment 0.2 s. Proteoliposomes (15 μg protein) were diluted in 2 ml assay buffer (20 mM Mops pH 7.2, 80 mM KCl, 0.5 μM valinomycin). After starting the measurement, 0.5 μM ACMA, 70 μM decylubiquinone (DBQ), 125 μM NADH, NP4 […]/vehicle, and Carbonyl cyanide m-chlorophenyl hydrazone (CCCP) 5 μM were added after 50, 100, 150, 200 and 300 s, respectively. The measurements were done in triplicate for 5, 15, 30, 45, 60 and 100 μM NP4. The Average over the time after the addition of NADH/NP4/CCCP till the next addition was taken from each measurement. The quenching after NADH the addition was taken as the zero % value and the dequench with CCCP was set to 100%. The zero value was subtracted from the dequenching with NP4 and the max dequenching with CCCP. The DMSO negative control was measured in duplicate.

Washed platelets [2] = assay: Mitochondrial ROS (mtROS) levels (MitoSOX); assay type: cell-based, Human
Method: as §1
Mitochondrial ROS (mtROS) Levels. The MitoSOX probe was used to identify mitochondrial ROS production specifically. Washed platelets (50 × 10^6 platelets/mL) were labeled with the MitoSOX® Red probe (Invitrogen, Carlsbad, CA, USA) 10 μM and incubated for 20 min at 37 °C protected from light. After, compounds (1, 5, and 10 μM) were added to the platelets and incubated for 10 min at 37 °C. […]

Washed platelets [3] = assay: Platelet aggregation in washed platelets (aggregometer); assay type: cell-based, Human; settings: for IC50: Homo sapiens, Platelet
Method: as §1
Platelet aggregation. Washed platelets (200-250 × 10^6 platelets/mL) were preincubated with 2 mM CaCl2 and then with the compounds under study for 5 min at 37 °C in the aggregometer (Agg RAM- Helena Biosciences). Aggregation was initiated with the agonists: collagen 2 μg/mL; convulxin 20 ng/mL; TRAP-6 (Thrombin receptor activator peptide 6) 5 μM; PMA (Phorbol myristate acetate) 100 nM or arachidonic acid 250 μg/mL. The aggregation curve was evaluated for 5 min at 37 °C in shaking at 1000 rpm.

Whole blood = assay: Bleeding time in vitro, Innovance PFA-200 closure time; set-up: species or system Human; settings: 10 μM, 10 min
Method: Bleeding time in vitro Innovance PFA-200 system. Blood was obtained in 3.2% citrate tubes which were allowed to settle for 30 min before the test. Whole blood was mixed with NP4 10 μM and incubated for 10 min. Subsequently, the sample was loaded into the Collagen/Epinephrine or Collagen/ADP cartridge and the closure time was measured in the Innovance PFA-200 system (Siemens Healthcare Diagnostics Products, Munich, Germany). Eptifibatide 10 μM was used as a control.

Cc1c(C)c(O)c2c(c1O)C(=O)C(CCCC[P+](c1ccccc1)(c1ccccc1)c1ccccc1)=CC2(C)C.[Br-] [NP4, (4-(5,8-dihydroxy-4,4,6,7-tetramethyl-1-oxo-1,4-dihydronaphthalen-2-yl)butyl)triphenyl phosphonium bromide]
ATP-dep (OCRBasal – OCRATP-indep) (platelets; 10 µM): 0,2 ± 0,22 | Activation (OCRCollagen – OCRBasal) (platelets; 10 µM): 0,15 ± 0,14 | Coupling efficiency ((OCRBasal – OCRATP-indep)/OCRBasal) (platelets; 10 µM): 0,095 ± 0,075 | Spare (OCRMaximum – OCRBasal) (platelets; 10 µM): 1,03 ± 0,29 | Basal (OCR/10^6 platelets) (platelets; 10 µM, Seahorse Mito Stress Test): 1,33 ± 0,69 OCR/10^6 platelets | Maximum (OCR/10^6 platelets) (platelets; 10 µM, after 1.4 μM FCCP): 2,28 ± 0,45 OCR/10^6 platelets | Collagen (OCR/10^6 platelets) (platelets; 10 µM, after 3 μg/mL collagen): 1,29 ± 0,48 OCR/10^6 platelets | Non-mito (OCR/10^6 platelets) (platelets; 10 µM, after antimycin A/rotenone): 0,04 ± 0,08 OCR/10^6 platelets | ATP-indep (OCR/10^6 platelets) (platelets; 10 µM, proton leak, after 2.5 μM oligomycin): 1,69 ± 0,47 OCR/10^6 platelets | Basal extracellular acidification of the media (platelets; non-activated platelets, NP4 10 μM, control 87.5 ± 10.6): 133.9 ± 14.1 mpH/min/10^6 platelets | IC50 ([1]; ACMA dequench relative to CCCP (100%), 5-100 μM NP4): 37.7 ± 1.14 µM | Concentrations that decouple complex I in liposomes ([1]; ACMA fluorescence, proteoliposomes): 30 to 60 µM | mtROS generation (Washed platelets [2]; 10 μM, MitoSOX, 10 min): able to increase | Dependence of depolarizing and antiplatelet effect on mtROS (Washed platelets [2]; MitoTempol 1 µM added first, then NP4 10 µM): independent of mitochondrial ROS levels | IC50 (Washed platelets [3]; read-out: IC50 for platelet aggregation, Convulxin): 4.45 ± 0.65 µM | IC50 (Washed platelets [3]; PMA 100 nM, washed platelets, read-out: IC50 for platelet aggregation, PMA): > 20 µM | IC50 (Washed platelets [3]; TRAP-6 5 μM, washed platelets, read-out: IC50 for platelet aggregation, TRAP-6): 7.4 ± 0.82 µM | IC50 (Washed platelets [3]; arachidonic acid 250 μg/mL, washed platelets, read-out: IC50 for platelet aggregation, Arachidonic Acid): > 20 µM | IC50 (Washed platelets [3]; collagen 2 μg/mL, washed platelets, read-out: IC50 for platelet aggregation, Collagen): 2.62 ± 0.91 µM | Effect on platelet aggregation vs vehicle (Washed platelets [3]; all tested concentrations, arachidonic acid 250 μg/mL): None of the NP4 concentrations showed any effect | Effect on platelet aggregation vs vehicle (Washed platelets [3]; compound 2 μM, collagen 2 μg/mL): significant effect | Effect on platelet aggregation vs vehicle (Washed platelets [3]; compound 5 μM, Convulxin 20 ng/mL): had an effect | Effect on platelet aggregation vs vehicle (Washed platelets [3]; compound 5 μM, TRAP-6 5 μM): had an effect | Effect on platelet aggregation vs vehicle (Washed platelets [3]; compound 5 μM, collagen 2 μg/mL): had an effect | Effect on platelet aggregation vs vehicle (Washed platelets [3]; compound 10 μM, Convulxin 20 ng/mL): significantly decreases | Effect on platelet aggregation vs vehicle (Washed platelets [3]; compound 10 μM, PMA 100 nM): significantly decreases | Effect on platelet aggregation vs vehicle (Washed platelets [3]; compound 10 μM, TRAP-6 5 μM): significantly decreases | Effect on platelet aggregation vs vehicle (Washed platelets [3]; compound 10 μM, collagen 2 μg/mL): significantly decreases | Closure time PFA-200 Collagen/ADP (Whole blood): does not significantly alter | Closure time PFA-200 Collagen/Epinephrine (Whole blood): does not significantly alter
